# What was measured:
# Assay type in all cases: in vivo
# [1] = system: ALOMY, Blackgrass, Alopecurus myosuroides; test: Preemergence herbicidal evaluation (Example 148); conditions: rating scale 0-9, two to four weeks after treatment
# In short: (§1)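 Applied: aqueous acetone solution, ~0.125–0.250 kg/ha, sprayed on soil just after seeding. Read: visual plant appearance against control, 2–4 weeks post-spray.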
# [2] = system: ECHCG, Barnyardgrass, Echinochloa crusgalli, (L.)Beau; test: Preemergence herbicidal evaluation (Example 148); conditions: rating scale 0-9, two to four weeks after treatment
# In short: as §1
# [3] = system: ABUTH, Velvetleaf, Abutilon theophrasti, Medic.; test: Preemergence herbicidal evaluation (Example 148); conditions: rating scale 0-9, two to four weeks after treatment
# In short: as §1
# [4] = system: XANST, Cocklebur, Xanthium strumariam; test: Preemergence herbicidal evaluation (Example 148); conditions: rating scale 0-9, two to four weeks after treatment
# In short: as §1
# [5] = system: IPOHE, Morningglory, Ivyleaf, Ipomoea hederacea, (L)Jacq.; test: Preemergence herbicidal evaluation (Example 148); conditions: rating scale 0-9, two to four weeks after treatment
# In short: as §1
# [6] = system: CHEAL, Lambsquarters, Chenopodium album, L. Common; test: Preemergence herbicidal evaluation (Example 148); conditions: rating scale 0-9, two to four weeks after treatment
# In short: as §1
# [7] = system: GLXMA, Soybean, Glycine max, (L.) Merr.; test: Preemergence herbicidal evaluation (Example 148); conditions: rating scale 0-9, two to four weeks after treatment
# In short: as §1
# [8] = system: TRZAW, Winter wheat, Tritium Aestivum, L. (Winter); test: Preemergence herbicidal evaluation (Example 148); conditions: rating scale 0-9, two to four weeks after treatment
# In short: as §1
# [9] = system: SETVI, Green foxtail, Setaria viridis, (L.)Beau; test: Preemergence herbicidal evaluation (Example 148); conditions: rating scale 0-9, two to four weeks after treatment
# In short: as §1
# [10] = system: AMBEL, Ragweed, Common, Ambrosia artemiisifolia, L.; test: Preemergence herbicidal evaluation (Example 148); conditions: rating scale 0-9, two to four weeks after treatment
# In short: as §1
# [11] = system: ZEAMX, Field corn, Zea mays L.; test: Preemergence herbicidal evaluation (Example 148); conditions: rating scale 0-9, two to four weeks after treatment
# In short: as §1
# [12] = system: DIGSA, Crabgrass, (Hairy) L, Digitaria sanguinalis, (L)Scop; test: Preemergence herbicidal evaluation (Example 148); conditions: rating scale 0-9, two to four weeks after treatment
# In short: as §1
# [13] = system: ALOMY, Blackgrass, Alopecurus myosuroides; test: Postemergence herbicidal evaluation (Example 147); conditions: rating scale 0-9, two to three weeks after treatment
# In short: (§2)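 Plants at about two weeks from sowing received a foliar spray of test compound equivalent to roughly 0.016 to 0.032 kg per hectare. The carrier was 80/20 acetone/water containing 1.0% methylated seed oil. Injury was scored on a 0-9 visual scale two to three weeks later.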
# [14] = system: ECHCG, Barnyardgrass, Echinochloa crusgalli, (L.)Beau; test: Postemergence herbicidal evaluation (Example 147); conditions: rating scale 0-9, two to three weeks after treatment
# In short: as §2
# [15] = system: ABUTH, Velvetleaf, Abutilon theophrasti, Medic.; test: Postemergence herbicidal evaluation (Example 147); conditions: rating scale 0-9, two to three weeks after treatment
# In short: as §2
# [16] = system: XANST, Cocklebur, Xanthium strumariam; test: Postemergence herbicidal evaluation (Example 147); conditions: rating scale 0-9, two to three weeks after treatment
# In short: as §2
# [17] = system: IPOHE, Morningglory, Ivyleaf, Ipomoea hederacea, (L)Jacq.; test: Postemergence herbicidal evaluation (Example 147); conditions: rating scale 0-9, two to three weeks after treatment
# In short: as §2
# [18] = system: CHEAL, Lambsquarters, Chenopodium album, L. Common; test: Postemergence herbicidal evaluation (Example 147); conditions: rating scale 0-9, two to three weeks after treatment
# In short: as §2
# [19] = system: GLXMA, Soybean, Glycine max, (L.) Merr.; test: Postemergence herbicidal evaluation (Example 147); conditions: rating scale 0-9, two to three weeks after treatment
# In short: as §2
# [20] = system: TRZAW, Winter wheat, Tritium Aestivum, L. (Winter); test: Postemergence herbicidal evaluation (Example 147); conditions: rating scale 0-9, two to three weeks after treatment
# In short: as §2
# [21] = system: SETVI, Green foxtail, Setaria viridis, (L.)Beau; test: Postemergence herbicidal evaluation (Example 147); conditions: rating scale 0-9, two to three weeks after treatment
# In short: as §2
# [22] = system: AMBEL, Ragweed, Common, Ambrosia artemiisifolia, L.; test: Postemergence herbicidal evaluation (Example 147); conditions: rating scale 0-9, two to three weeks after treatment
# In short: as §2
# [23] = system: ZEAMX, Field corn, Zea mays L.; test: Postemergence herbicidal evaluation (Example 147); conditions: rating scale 0-9, two to three weeks after treatment
# In short: as §2
# [24] = system: DIGSA, Crabgrass, (Hairy) L, Digitaria sanguinalis, (L)Scop; test: Postemergence herbicidal evaluation (Example 147); conditions: rating scale 0-9, two to three weeks after treatment
# In short: as §2
structure (smiles),measurement,setting,value
Cn1c(C(F)(F)F)cc(=O)n(-c2cc(C(=O)NS(N)(=O)=O)c(Cl)cc2F)c1=O [Example 58],Preemergence herbicidal rating ALMOY,[1]; rate 0.125 kg/ha,0.0
same,Preemergence herbicidal rating ALMOY,[1]; rate 0.25 kg/ha,0.0
same,Preemergence herbicidal rating ECHCG,[2]; rate 0.125 kg/ha,4.0
same,Preemergence herbicidal rating ECHCG,[2]; rate 0.25 kg/ha,6.0
same,Preemergence herbicidal rating ABUTH,[3]; rate 0.125 kg/ha,9.0
same,Preemergence herbicidal rating ABUTH,[3]; rate 0.25 kg/ha,9.0
same,Preemergence herbicidal rating XANST,[4]; rate 0.125 kg/ha,5.0
same,Preemergence herbicidal rating XANST,[4]; rate 0.25 kg/ha,8.0
same,Preemergence herbicidal rating IPOHE,[5]; rate 0.125 kg/ha,9.0
same,Preemergence herbicidal rating IPOHE,[5]; rate 0.25 kg/ha,9.0
same,Preemergence herbicidal rating CHEAL,[6]; rate 0.125 kg/ha,9.0
same,Preemergence herbicidal rating CHEAL,[6]; rate 0.25 kg/ha,9.0
same,Preemergence herbicidal rating GLXMA,[7]; rate 0.125 kg/ha,9.0
same,Preemergence herbicidal rating GLXMA,[7]; rate 0.25 kg/ha,9.0
same,Preemergence herbicidal rating TRZAW,[8]; rate 0.125 kg/ha,0.0
same,Preemergence herbicidal rating TRZAW,[8]; rate 0.25 kg/ha,3.0
same,Preemergence herbicidal rating SETVI,[9]; rate 0.125 kg/ha,2.0
same,Preemergence herbicidal rating SETVI,[9]; rate 0.25 kg/ha,6.0
same,Preemergence herbicidal rating AMBEL,[10]; rate 0.125 kg/ha,9.0
same,Preemergence herbicidal rating AMBEL,[10]; rate 0.25 kg/ha,9.0
same,Preemergence herbicidal rating ZEAMX,[11]; rate 0.125 kg/ha,0.0
same,Preemergence herbicidal rating ZEAMX,[11]; rate 0.25 kg/ha,1.0
same,Preemergence herbicidal rating DIGSA,[12]; rate 0.125 kg/ha,0.0
same,Preemergence herbicidal rating DIGSA,[12]; rate 0.25 kg/ha,3.0
same,Postemergence herbicidal rating ALMOY,[13]; rate 0.016 kg/ha,3.0
same,Postemergence herbicidal rating ALMOY,[13]; rate 0.032 kg/ha,3.0
same,Postemergence herbicidal rating ECHCG,[14]; rate 0.016 kg/ha,6.0
same,Postemergence herbicidal rating ECHCG,[14]; rate 0.032 kg/ha,7.0
same,Postemergence herbicidal rating ABUTH,[15]; rate 0.016 kg/ha,9.0
same,Postemergence herbicidal rating ABUTH,[15]; rate 0.032 kg/ha,9.0
same,Postemergence herbicidal rating XANST,[16]; rate 0.016 kg/ha,9.0
same,Postemergence herbicidal rating XANST,[16]; rate 0.032 kg/ha,9.0
same,Postemergence herbicidal rating IPOHE,[17]; rate 0.016 kg/ha,9.0
same,Postemergence herbicidal rating IPOHE,[17]; rate 0.032 kg/ha,9.0
same,Postemergence herbicidal rating CHEAL,[18]; rate 0.016 kg/ha,8.0
same,Postemergence herbicidal rating CHEAL,[18]; rate 0.032 kg/ha,9.0
same,Postemergence herbicidal rating GLXMA,[19]; rate 0.016 kg/ha,8.5
same,Postemergence herbicidal rating GLXMA,[19]; rate 0.032 kg/ha,8.5
same,Postemergence herbicidal rating TRZAW,[20]; rate 0.016 kg/ha,4.5
same,Postemergence herbicidal rating TRZAW,[20]; rate 0.032 kg/ha,5.0
same,Postemergence herbicidal rating SETVI,[21]; rate 0.016 kg/ha,8.0
same,Postemergence herbicidal rating SETVI,[21]; rate 0.032 kg/ha,8.0
same,Postemergence herbicidal rating AMBEL,[22]; rate 0.016 kg/ha,9.0
same,Postemergence herbicidal rating AMBEL,[22]; rate 0.032 kg/ha,9.0
same,Postemergence herbicidal rating ZEAMX,[23]; rate 0.016 kg/ha,8.0
same,Postemergence herbicidal rating ZEAMX,[23]; rate 0.032 kg/ha,8.0
same,Postemergence herbicidal rating DIGSA,[24]; rate 0.016 kg/ha,5.0
same,Postemergence herbicidal rating DIGSA,[24]; rate 0.032 kg/ha,6.0
C=CCN(C)S(=O)(=O)NC(=O)c1cc(-n2c(=O)cc(C(F)(F)F)n(C)c2=O)c(F)cc1Cl [Example 59],Preemergence herbicidal rating ALMOY,[1]; rate 0.125 kg/ha,0.0
same,Preemergence herbicidal rating ALMOY,[1]; rate 0.25 kg/ha,4.0
same,Preemergence herbicidal rating ECHCG,[2]; rate 0.125 kg/ha,0.0
same,Preemergence herbicidal rating ECHCG,[2]; rate 0.25 kg/ha,3.0
same,Preemergence herbicidal rating ABUTH,[3]; rate 0.125 kg/ha,9.0
same,Preemergence herbicidal rating ABUTH,[3]; rate 0.25 kg/ha,9.0
same,Preemergence herbicidal rating XANST,[4]; rate 0.125 kg/ha,0.0
same,Preemergence herbicidal rating XANST,[4]; rate 0.25 kg/ha,9.0
same,Preemergence herbicidal rating IPOHE,[5]; rate 0.125 kg/ha,9.0
same,Preemergence herbicidal rating IPOHE,[5]; rate 0.25 kg/ha,9.0
same,Preemergence herbicidal rating CHEAL,[6]; rate 0.125 kg/ha,9.0
same,Preemergence herbicidal rating CHEAL,[6]; rate 0.25 kg/ha,9.0
same,Preemergence herbicidal rating GLXMA,[7]; rate 0.125 kg/ha,2.0
same,Preemergence herbicidal rating GLXMA,[7]; rate 0.25 kg/ha,8.0
same,Preemergence herbicidal rating TRZAW,[8]; rate 0.125 kg/ha,0.0
same,Preemergence herbicidal rating TRZAW,[8]; rate 0.25 kg/ha,0.0
same,Preemergence herbicidal rating SETVI,[9]; rate 0.125 kg/ha,4.0
same,Preemergence herbicidal rating SETVI,[9]; rate 0.25 kg/ha,9.0
same,Preemergence herbicidal rating AMBEL,[10]; rate 0.125 kg/ha,9.0
same,Preemergence herbicidal rating AMBEL,[10]; rate 0.25 kg/ha,9.0
same,Preemergence herbicidal rating ZEAMX,[11]; rate 0.125 kg/ha,0.0
same,Preemergence herbicidal rating ZEAMX,[11]; rate 0.25 kg/ha,2.0
same,Preemergence herbicidal rating DIGSA,[12]; rate 0.125 kg/ha,3.0
same,Preemergence herbicidal rating DIGSA,[12]; rate 0.25 kg/ha,7.0
same,Postemergence herbicidal rating ALMOY,[13]; rate 0.016 kg/ha,3.0
same,Postemergence herbicidal rating ALMOY,[13]; rate 0.032 kg/ha,4.0
same,Postemergence herbicidal rating ECHCG,[14]; rate 0.016 kg/ha,6.0
same,Postemergence herbicidal rating ECHCG,[14]; rate 0.032 kg/ha,7.0
same,Postemergence herbicidal rating ABUTH,[15]; rate 0.016 kg/ha,9.0
same,Postemergence herbicidal rating ABUTH,[15]; rate 0.032 kg/ha,9.0
same,Postemergence herbicidal rating XANST,[16]; rate 0.016 kg/ha,9.0
same,Postemergence herbicidal rating XANST,[16]; rate 0.032 kg/ha,9.0
same,Postemergence herbicidal rating IPOHE,[17]; rate 0.016 kg/ha,9.0
same,Postemergence herbicidal rating IPOHE,[17]; rate 0.032 kg/ha,9.0
same,Postemergence herbicidal rating CHEAL,[18]; rate 0.016 kg/ha,7.0
same,Postemergence herbicidal rating CHEAL,[18]; rate 0.032 kg/ha,8.0
same,Postemergence herbicidal rating GLXMA,[19]; rate 0.016 kg/ha,8.0
same,Postemergence herbicidal rating GLXMA,[19]; rate 0.032 kg/ha,8.5
same,Postemergence herbicidal rating TRZAW,[20]; rate 0.016 kg/ha,4.0
same,Postemergence herbicidal rating TRZAW,[20]; rate 0.032 kg/ha,4.5
same,Postemergence herbicidal rating SETVI,[21]; rate 0.016 kg/ha,7.0
same,Postemergence herbicidal rating SETVI,[21]; rate 0.032 kg/ha,8.0
same,Postemergence herbicidal rating AMBEL,[22]; rate 0.016 kg/ha,7.0
same,Postemergence herbicidal rating AMBEL,[22]; rate 0.032 kg/ha,9.0
same,Postemergence herbicidal rating ZEAMX,[23]; rate 0.016 kg/ha,8.0
same,Postemergence herbicidal rating ZEAMX,[23]; rate 0.032 kg/ha,8.0
same,Postemergence herbicidal rating DIGSA,[24]; rate 0.016 kg/ha,4.0
same,Postemergence herbicidal rating DIGSA,[24]; rate 0.032 kg/ha,5.0

# — patent publication US6689773B2, “Uracil substituted phenyl sulfamoyl carboxamides” (BASF Aktiengesellschaft, priority 2000, dated 2004)
